Measured values reported in US12600726B2, “Antagonists of the muscarinic acetylcholine receptor M4” (Vanderbilt University, priority 2017, dated 2026).

Assays:
Human M4 = target: T1, Human M4 (Homo sapiens, UniProt P08173); assay: mAChR M4 cell-based functional calcium flux assay (human M4/Gqi5/CHO cells); details: for Emin (human M4): % ACh maximum at 30 μM; for IC50: decrease of the response to an EC80 concentration of acetylcholine
T1 construct: expressed in transfected cells; host or cells: CHO-K1 (ATCC), stably expressing M4 and Gqi5
T1 sequence (P08173 1-479): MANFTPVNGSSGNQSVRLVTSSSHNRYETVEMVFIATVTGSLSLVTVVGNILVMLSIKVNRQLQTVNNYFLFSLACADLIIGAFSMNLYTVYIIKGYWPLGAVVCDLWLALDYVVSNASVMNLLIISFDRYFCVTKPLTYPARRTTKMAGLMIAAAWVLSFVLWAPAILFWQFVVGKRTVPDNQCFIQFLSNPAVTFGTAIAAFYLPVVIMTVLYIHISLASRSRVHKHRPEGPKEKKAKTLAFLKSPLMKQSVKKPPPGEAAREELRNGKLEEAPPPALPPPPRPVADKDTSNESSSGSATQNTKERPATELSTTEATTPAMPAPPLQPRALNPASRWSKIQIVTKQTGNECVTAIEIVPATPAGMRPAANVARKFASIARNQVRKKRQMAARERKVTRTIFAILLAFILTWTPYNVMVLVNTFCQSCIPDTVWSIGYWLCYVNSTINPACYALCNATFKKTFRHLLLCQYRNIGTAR
Experimental: (§1) Human, rat, or mouse M4. cDNA, along with the chimeric G protein Gqi5, were transfected into Chinese hamster ovary (CHO-K1) cells purchased from the American Type Culture Collection using Lipofectamine2000. M4/Gqi5/CHO cells were grown in Ham's F-12 medium containing 10% heat-inactivated fetal bovine serum (FBS), 20 mM HEPES, 500 μg/mL G418 sulfate, and 200 μg/mL Hygromycin B.
(§2) For high throughput measurement of agonist-evoked increases in intracellular calcium, CHO-K1 cells stably expressing muscarinic receptors were plated in growth medium lacking G418 and hygromycin at 15,000 cells/20 μL/well in Greiner 384-well black-walled, tissue culture (TC)-treated, clear-bottom plates (VWR). Cells were incubated overnight at 37° C. and 5% CO2. The next day, cells were washed using an ELX 405 (BioTek) with assay buffer; the final volume was then aspirated to 20 μL. Next, 20 μL of a 2.3 μM stock of Fluo-4/acetoxymethyl ester (Invitrogen, Carlsbad, CA), prepared as a 2.3 mM stock in DMSO and mixed in a 1:1 ratio with 10% (w/v) Pluronic F-127 and diluted in assay buffer, was added to the wells and the cell plates were incubated for 50 min at 37° C. and 5% CO2. Dye was removed by washing with the ELX 405 and the final volume was aspirated to 20 μL. Compound master plates were formatted in a 10 point concentration-response curve (CRC) format (1:3 dilutions) in 100% DMSO with a starting concentration of 10 or 1 mM using a BRAVO liquid handler (Agilent). Test compound CRCs were then transferred to daughter plates (240 nL) using the Echo acoustic plate reformatter (Labcyte, Sunnyvale, CA) and then diluted into assay buffer (40 μL) to a 2× stock using a Thermo Fisher Combi (Thermo Fisher Scientific, Waltham, MA).
(§3) Calcium flux was measured using the Functional Drug Screening System (FDSS) 6000 or 7000 (Hamamatsu Corporation, Tokyo, Japan) as an increase in the fluorescent static ratio. Compounds were applied to cells (20 μL, 2×) using the automated system of the FDSS at 2 seconds into the protocol and the data were collected at 1 Hz. At 143 s, 10 μL of an EC20 concentration of the muscarinic receptor agonist acetylcholine was added (5×), followed by the addition of 12 μL of an EC80 concentration of acetylcholine at the 268 s time point (5×). Agonist activity was analyzed as a concentration-dependent increase in calcium mobilization upon compound addition. Positive allosteric modulator activity was analyzed as a concentration-dependent increase in the EC20 acetylcholine response. Antagonist activity was analyzed as a concentration-dependent decrease in the EC80 acetylcholine response; for the purposes of the tables herein, an IC50 (inhibitory concentration 50) was calculated as a concentration-dependent decrease of the response elicited by an EC80 concentration of acetylcholine. Concentration-response curves were generated using a four-parameter logistical equation in XLFit curve fitting software (IDBS, Bridgewater, NJ) for Excel (Microsoft, Redmond, WA) or Prism (GraphPad Software, Inc., San Diego, CA) or the Dotmatics software platform (Dotmatics, Bishop's Stortford, UK).
(§4) Compounds were synthesized as described above. Activity (IC50 and Emin) was determined in the mAChR M4 cell-based functional assay as described above and the data are shown in Table 2 and Table 3. The compound number corresponds to the compound numbers used in the examples and Tables 1 and 1.1.

Rat M4 = target: T2, Rat M4 (Rattus norvegicus, UniProt P08485); assay: mAChR M4 cell-based functional calcium flux assay (rat M4/Gqi5/CHO cells); details: for Emin (rat M4): % ACh maximum at 30 μM
T2 construct: expressed in transfected cells; host or cells: CHO-K1 (ATCC), stably expressing M4 and Gqi5
T2 sequence (P08485 1-478): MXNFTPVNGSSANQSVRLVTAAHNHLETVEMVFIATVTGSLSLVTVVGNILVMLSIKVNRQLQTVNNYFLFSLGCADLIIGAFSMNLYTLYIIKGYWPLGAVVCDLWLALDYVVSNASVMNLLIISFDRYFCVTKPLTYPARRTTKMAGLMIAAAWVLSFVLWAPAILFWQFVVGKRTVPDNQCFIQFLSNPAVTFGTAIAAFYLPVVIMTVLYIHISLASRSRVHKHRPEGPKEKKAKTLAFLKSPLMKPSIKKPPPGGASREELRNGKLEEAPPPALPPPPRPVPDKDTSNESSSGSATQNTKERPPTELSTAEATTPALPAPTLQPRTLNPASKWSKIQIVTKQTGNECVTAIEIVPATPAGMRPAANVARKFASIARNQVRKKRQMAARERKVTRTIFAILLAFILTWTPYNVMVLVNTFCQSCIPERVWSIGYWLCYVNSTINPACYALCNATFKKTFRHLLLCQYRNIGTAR
Experimental: as §1, §2, §3, §4

[1] = decrease of the response to an EC80 concentration of acetylcholine
[2] = cells printed in μM, decrease of the EC80 acetylcholine response

Row | SMILES | Emin (human M4) (Human M4) [%] | IC50 (Human M4) [µM] | Emin (rat M4) (Rat M4) [%] | IC50 (Rat M4; [1]) [µM] | IC50 (Rat M4; [2]) [µM]
1 | Cc1cccnc1CN1CCC2(CC1)C[C@H]2CNc1ccc(-c2cc(F)ccc2Cl)nn1 [Compound 114, 6-(2-chloro-5-fluoro-phenyl)-N-[[(2R)-6-[(3-methyl-2-pyridyl)methyl]-6-azaspiro[2.5]octan-2-yl]methyl]pyridazin-3-amine] | 2 | 0.0257 | 5 | 0.223 | –
2 | Fc1ccc(Cl)c(-c2ccc(NC[C@@H]3CC34CCN(CC3CCCCC3)CC4)nn2)c1 [Compound 65, (R)-6-(2-chloro-5-fluoro-phenyl)-N-[[6-(cyclohexylmethyl)-6-azaspiro[2.5]octan-2-yl]methyl]pyridazin-3-amine] | 2.62 | 0.0127 | 4.33 | 0.0809 | –
3 | CCN1CCC2(CC1)CC2CNc1ccc(-c2cn(C)nc2C)nn1 (stereo not shown) [Compound 53, 6-(1,3-dimethylpyrazol-4-yl)-N-[(6-ethyl-6-azaspiro[2.5]octan-2-yl)methyl]pyridazin-3-amine] | 75.5 | – | 75.5 | – | > 10
4 | CC(C)(C)CCN1CCC2(CC1)CC2CNc1ccc(Cl)nn1 (stereo not shown) [Compound 20, 6-chloro-N-[[6-(3,3-dimethylbutyl)-6-azaspiro[2.5]octan-2-yl]methyl]pyridazin-3-amine] | 3.47 | 0.27 | 5.14 | 1.09 | –
5 | CCC(C)CN1CCC2(CC1)CC2CNc1ccc(-c2cn(C)nc2C)nn1 (stereo not shown) [Compound 51, 6-(1,3-dimethylpyrazol-4-yl)-N-[[6-(2-methylbutyl)-6-azaspiro[2.5]octan-2-yl]methyl]pyridazin-3-amine] | 4.31 | 0.0495 | 7.13 | 0.808 | –
6 | Fc1ccc(Cl)c(-c2ccc(NC[C@@H]3CC34CCN(CC3CCOCC3)CC4)nn2)c1 [Compound 107, (R)-6-(2-chloro-5-fluoro-phenyl)-N-[[6-(tetrahydropyran-4-ylmethyl)-6-azaspiro[2.5]octan-2-yl]methyl]pyridazin-3-amine] | 4 | 0.0018 | 6 | 0.0129 | –
7 | Cc1cnn(C)c1-c1ccc(NC(=O)C2CC23CCN(CC(C)C(C)(C)C)CC3)nn1 (stereo not shown) [Compound 7, N-[6-(2,4-dimethylpyrazol-3-yl)pyridazin-3-yl]-6-(2,3,3-trimethylbutyl)-6-azaspiro[2.5]octane-2-carboxamide] | 6.29 | 2.24 | 22.7 | – | > 10
8 | Cc1nn(C)cc1-c1cnc(NCC2CC23CCN(CCC(C)(C)C)CC3)cn1 (stereo not shown) [Compound 23, N-[[6-(3,3-dimethylbutyl)-6-azaspiro[2.5]octan-2-yl]methyl]-5-(1,3-dimethylpyrazol-4-yl)pyrazin-2-amine] | 2.71 | 0.0647 | 4.71 | 0.278 | –
9 | CC(C)(C)CCN1CCC2(CC1)CC2CNc1ccc(N2CCOCC2)nn1 (stereo not shown) [Compound 79, N-[[6-(3,3-dimethylbutyl)-6-azaspiro[2.5]octan-2-yl]methyl]-6-morpholino-pyridazin-3-amine] | 5 | 0.005 | 5 | 0.0139 | –
10 | Cc1cnn(C)c1-c1ccc(NC(=O)C2CC23CCN(CCC(C)(C)C)CC3)nn1 (stereo not shown) [Compound 5, N-(6-(1,4-dimethyl-1H-pyrazol-5-yl)pyridazin-3-yl)-6-(3,3-dimethylbutyl)-6-azaspiro[2.5]octane-1-carboxamide] | 5.53 | 1.68 | 18.7 | 5.72 | –
11 | CC(=O)Nc1ccc(-c2nnc(NCC3CC34CCN(CC3CCCCC3)CC4)c(C)c2C)cc1 (stereo not shown) [Compound 117, N-[4-[6-[[6-(cyclohexylmethyl)-6-azaspiro[2.5]octan-2-yl]methylamino]-4,5-dimethyl-pyridazin-3-yl]phenyl]acetamide] | 5 | 0.0197 | 4 | 0.0137 | –
12 | Cc1cnn(C)c1-c1ccc(NC(=O)C2CC23CCN(CC2CC4C=CC2C4)CC3)nn1 (stereo not shown) [Compound 8, 6-(5-bicyclo[2.2.1]hept-2-enylmethyl)-N-[6-(2,4-dimethylpyrazol-3-yl)pyridazin-3-yl]-6-azaspiro[2.5]octane-2-carboxamide] | 65.0 | 0.928 | 10.8 | 3.64 | –
13 | Cc1nn(C)cc1-c1nnc(NCC2CC23CCN(Cc2ccccc2)CC3)c2ccccc12 (stereo not shown) [Compound 88, N-[(6-benzyl-6-azaspiro[2.5]octan-2-yl)methyl]-4-(1,3-dimethylpyrazol-4-yl)phthalazin-1-amine] | 5 | 0.265 | 6 | 1.25 | –
14 | CC(=O)Nc1ccc(-c2ccc(NC[C@@H]3CC34CCN(CC35CC6CC(CC(C6)C3)C5)CC4)nn2)cc1 [Compound 120, N-[4-[6-[[(2R)-6-(1-adamantylmethyl)-6-azaspiro[2.5]octan-2-yl]methylamino]pyridazin-3-yl]phenyl]acetamide] | 4 | 0.0287 | 3 | 0.0357 | –
15 | Cc1cnn(C)c1-c1ccc(NCC2CC23CCN(CCC(C)(C)C)CC3)nn1 (stereo not shown) [Compound 35, N-[[6-(3,3-dimethylbutyl)-6-azaspiro[2.5]octan-2-yl]methyl]-6-(2,4-dimethylpyrazol-3-yl)pyridazin-3-amine] | 2.58 | 0.00315 | 3.44 | 0.0478 | –
16 | Cc1nn(C)cc1-c1ccc(NCC2CC23CCN(CC2CCCCC2)CC3)nn1 (stereo not shown) [Compound 56, N-[[6-(cyclohexylmethyl)-6-azaspiro[2.5]octan-2-yl]methyl]-6-(1,3-dimethylpyrazol-4-yl)pyridazin-3-amine] | 3.42 | 0.00506 | 4.14 | 0.0638 | –
17 | c1cc(N2CCOCC2)nnc1NCC1CC12CCN(CC1CCCCC1)CC2 (stereo not shown) [Compound 83, N-[[6-(cyclohexylmethyl)-6-azaspiro[2.5]octan-2-yl]methyl]-6-morpholino-pyridazin-3-amine] | 6 | 0.0335 | 7 | 0.362 | –
